# Results published in patent US9862702B2, “Processes for the preparation of pesticidal compounds” (Dow AgroSciences LLC, priority 2013, dated 2018).
# Where a name gives a salt, the structure may show the parent alone.
# Assays:
# [1] = tested on: Green Peach Aphid ("GPA") (Myzus persicae) (MYZUPE); assay: Bioassays on Green Peach Aphid (GPA), foliar spray on infested cabbage seedlings; format: in vivo; conditions: 72 h, 200 ppm test solution sprayed on cabbage leaves until runoff, live aphids counted after three days at about 25° C., read-out: MYZUPE rating (% Control of Mortality, Abbott-corrected)
# Excerpt: Example A Bioassays on Green Peach Aphid (“GPA”) (Myzus persicae) (MYZUPE.)
# GPA is the most significant aphid pest of peach trees, causing decreased growth, shriveling of leaves, and the death of various tissues. It is also hazardous because it acts as a vector for the transport of plant viruses, such as potato virus Y and potato leafroll virus to members of the nightshade/potato family Solanaceae, and various mosaic viruses to many other food crops. GPA attacks such plants as broccoli, burdock, cabbage, carrot, cauliflower, daikon, eggplant, green beans, lettuce, macadamia, papaya, peppers, sweet potatoes, tomatoes, watercress and zucchini among other plants. GPA also attacks many ornamental crops such as carnations, chrysanthemum, flowering white cabbage, poinsettia and roses. GPA has developed resistance to many pesticides.
# Several molecules disclosed herein were tested against GPA using procedures described below.
# Cabbage seedling grown in 3-in pots, with 2-3 small (3-5 cm) true leaves, were used as test substrate. The seedlings were infested with […] (wingless adult and nymph stages) one day prior to chemical application. Four posts with individual seedlings were used for each treatment. Test compounds (2 mg) were dissolved in 2 mL of acetone/methanol (1:1) solvent, forming stock solutions of 1000 ppm test compound. The stock solutions were diluted 5× with 0.025% Tween 20 in water to obtain the solution at 200 ppm test compound. A hand-held aspirator-type sprayer was used for spraying a solution to both sides of the cabbage leaves until runoff. Reference plants (solvent check) were sprayed with the diluent only containing 20% by volume acetone/methanol (1:1) solvent. Treated plants were held in a holding room for three days at approximately 25° C. and ambient relative humidity (RH) prior to grading. Evaluation was conducted by counting the number of live aphids per plant under a microscope. Percent Control was measured by using Abbott's correction formula (W. S. Abbott, “A Method of Computing the Effectiveness of an Insecticide” J. Econ. Entomol 18 (1925), pp. 265-267) as follows. Corrected % Control=100*(X−Y)/X • where • X=No. of live aphids on solvent check plants and • Y=No. of live aphids on treated plants
# The results are indicated in the table entitled “Table 1: GPA (MYZUPE) and sweetpotato whitefly-crawler (BEMITA) Rating Table”.
# [2] = tested on: Sweetpotato Whitefly Crawler (Bemisia tabaci) (BEMITA); assay: Bioassays on Sweetpotato Whitefly Crawler, foliar spray on infested cotton plants; format: in vivo; conditions: 200 ppm test solution sprayed on cotton leaves until runoff, live nymphs counted after 8-9 days at 82° F., 50% RH, read-out: BEMITA rating (% Control of Mortality, Abbott-corrected)
# Excerpt: Example B Bioassays on Sweetpotato Whitefly Crawler (Bemisia tabaci) (BEMITA.)
# The sweetpotato whitefly, Bemisia tabaci (Gennadius), has been recorded in the United States since the late 1800s. In 1986 in Florida, Bemisia tabaci became an extreme economic pest. Whiteflies usually feed on the lower surface of their host plant leaves. From the egg hatches a minute crawler stage that moves about the leaf until it inserts its microscopic, threadlike mouthparts to feed by sucking sap from the phloem. Adults and nymphs excrete honeydew (largely plant sugars from feeding on phloem), a sticky, viscous liquid in which dark sooty molds grow. Heavy infestations of adults and their progeny can cause seedling death, or reduction in vigor and yield of older plants, due simply to sap removal. The honeydew can stick cotton lint together, making it more difficult to gin and therefore reducing its value. Sooty mold grows on honeydew-covered substrates, obscuring the leaf and reducing photosynthesis, and reducing fruit quality grade. It transmitted plant-pathogenic viruses that had never affected cultivated crops and induced plant physiological disorders, such as tomato irregular ripening and squash silverleaf disorder. Whiteflies are resistant to many formerly effective pesticides.
# Cotton plants grown in 3-inch pots, with 1 small (3-5 cm) true leaf, were used at test substrate. The plants were placed in a room with whitefly adults. Adults were allowed to deposit eggs for 2-3 days. After a 2-3 day egg-laying period, plants were taken from the adult whitefly room. Adults were blown off leaves using a hand-held Devilbliss sprayer (23 psi). Plants with egg infestation (100-300 eggs per plant) were placed in a holding room for 5-6 days at 82° F. and 50% RH for egg hatch and crawler stage to develop. Four cotton plants were used for each treatment. Compounds (2 mg) were dissolved in 1 mL of acetone solvent, forming stock solutions of 2000 ppm. The stock solutions were diluted 10× with 0.025% Tween 20 in water to obtain a test solution at 200 ppm. A hand-held Devilbliss sprayer was used for spraying a solution to both sides of cotton leaf until runoff. Reference plants (solvent check) were sprayed with the diluent only. Treated plants were held in a holding room for 8-9 days at approximately 82° F. and 50% RH prior to grading. Evaluation was conducted by counting the number of live nymphs per plant under a microscope.
SMILES,mortality at 200 ppm [1] [%],mortality at 200 ppm [2] [%],melting point [°C]
"COC(=O)C1CC(Cl)=NN1c1cccnc1 (stereo not drawn) [Compound 6c, Methyl 3-chloro-1-(pyridin-3-yl)-4,5-dihydro-1H-pyrazole-5-carboxylate]",0 to 80,80 to 100,
"COC(=O)c1cc(Cl)nn1-c1cccnc1 [Compound 6d, Methyl 3-chloro-1-(pyridin-3-yl)-1H-pyrazole-5-carboxylate]",0 to 80,< 0,
"CCOC(=O)C1CC(Cl)=NN1c1cccnc1 (stereo not drawn) [Compound 19.6, Ethyl 3-chloro-1-(pyridin-3-yl)-4,5-dihydro-1H-pyrazole-5-carboxylate]",0 to 80,0 to 80,
"O=C(O)/C=N/Nc1cccnc1 [Compound 6a, (E)-2-((2-Pyridin-3-yl)hydrazono)acetic Acid Hydrochloride]",0 to 80,0 to 80,
"CCOC(=O)C1CC(=O)NN1c1cccnc1 (stereo not drawn) [Compound 18.6, Ethyl 5-oxo-2-(pyridin-3-yl)pyrazolidine-3-carboxylate]",0 to 80,0 to 80,
"N#CC1CC(Cl)=NN1c1cccnc1 (stereo not drawn) [Compound 6b, 3-Chloro-1-(pyridine-3-yl)-4,5-dihydro-1H-pyrazole-5-carbonitrile]",0 to 80,< 0,
"O=C(O)c1cc(Cl)nn1-c1cccnc1 [Compound 6e, 3-Chloro-1-(pyridine-3-yl)-1H-pyrazole-5-carboxylic Acid Hydrochloride]",0 to 80,< 0,
"O=[N+]([O-])c1cn(-c2cccnc2)nc1Cl [Compound 5c, 3-(3-Chloro-4-nitro-1H-pyrazol-1-yl)pyridine]",,,141 to 143
